Patent publication US20160017326A1, “MICRORNAS AS FUNCTIONAL MEDIATORS AND BIOMARKERS OF BONE METASTASIS” (THE TRUSTEES OF PRINCETON UNIVERSITY, priority 2013, published 2016)

Experiments:
RAW264.7 cells = experiment: RANKL-induced osteoclast differentiation, TRAP staining; assay type: cell-based, murine; settings: all models tested
Text: HeLa and RAW264.7 cells (American Type Culture Collection, ATCC) were maintained in Dulbecco's modified Eagle's medium (DMEM) supplemented with 10% fetal bovine serum (FBS), penicillin/streptomycin (GIBCO), and fungizone. MOCP-5 cells were maintained in αMEM with 10% FBS and antibiotics. MDA-MB-231 parental cells (ATCC) and all sublines (SCP2, SCP4, SCP6, SCP28, SCP46) were maintained in DMEM with 10% FBS and antibiotics. The murine 4T1 and 4T1.2 cells, and human TSU-Pr1, and TSU-PR1-B2 cells were similarly maintained in DMEM with 10% FBS and antibiotics. For osteoclast differentiation assays, cells were treated with indicated concentration of RANKL in DMEM plus 10% FBS, with media changes performed every 2 days. Primary osteoclasts were isolated from bone marrow cells flushed from the tibia of 6-week-old wild type Balb/c mice and filtered through a […] cell-strainer before overnight culture in aMEM with 10% FBS. The following day 1×10^6 non-adherent cells were plated in 6-well plates supplemented with 50 ng/mL M-CSF for 2 days, followed by 50 ng/mL RANKL for an additional 4-5 days, with media changes every 2 days. Human osteoclasts were obtained from Lonza (2T-110) and differentiated by treatment with 33 ng/ml M-CSF and 66 ng/ml RANKL. CM was collected from the indicated sub-confluent tumor cells grown in DMEM with […] for 24 hours. The CM was passed through a 0.2 μm filter before addition to 1×10^5 RAW264.7 or MOCP-5 cells in a 6-well plate. The media was replaced with fresh CM daily. Cells were TRAP stained on day 6 using a leukocyte acid phosphatase kit (Sigma) and TRAP^+-multineucliated cells were quantified as mature osteoclasts. […]

[1] = test system: Pu.1, Nfatc1, Ctsk in RAW264.7 cells; experiment: Western blot of Pu.1, Nfatc1, Ctsk after miRNA transfection and RANKL; assay type: cell-based, murine; settings: transient miRNA transfection, 50 ng/ml RANKL
Description: SDS lysis buffer (0.05 mM Tris-HCl, 50 mM BME, 2% SDS, 0.1% Bromophenol blue, 10% glycerol) was used to collect protein from cells. Samples were sonicated and heat denatured protein was equally loaded, separated on a 10% SDS-page gel, transferred onto a pure nitrocellulose membrane (BioRad), and blocked with 5% milk. Primary antibodies for immunoblotting included: anti-IκBα (1:1000 dilution, Cell signaling, 44D4), anti-p-p65 (1:500 dilution, Santa Cruz Biotechnology), anti-Pu.1 (5 μg/ml, Abcam, AB88082), anti-Nfatc1 (1 μg/ml, Abcam, AB25916), anti-Ctsk (4 μg/ml, Abcam, AB19027), anti-β-actin (1:5000 dilution, ABcam), for loading control. Membranes were incubated with horseradish peroxidase (HRP)-conjugated anti-mouse secondary antibody (1:2000 dilution, GE Healthcare) or anti-rabbit secondary antibody (1:2000 dilution, GE Healthcare) for 1 h and chemiluminescence signals were detected by ECL substrate (GE Healthcare).
To better examine the capacity of the miRNAs to inhibit osteoclast differentiation, osteoclast markers were examined in RAW264.7 cells transfected with the miRNA of interest, followed by RANKL treatment. FIG. 5F illustrates Western blot analysis for Pu.1, Nfatc1, or Ctsk in RAW264.7 cells after transient transfection with indicated miRNA and treatment with 50 ng/ml RANKL. Data in the figure represent average ±SEM; p values were based on Student's t-test.

Balb/c mice = experiment: Systemic pre-miRNA treatment of healthy mice: X-ray, microCT, histology; assay type: in vivo, mouse; settings: for number of osteoclasts relative to bone surface area (TRAP): 10 μg pre-miRNA i.v. weekly for four weeks; for osteoclast activity in vivo: intravenous injection
Text: Hindlimb bones were excised from mice at the end point of each experiment, immediately following X-ray and BLI. Hind limb bones were fixed in 10% neutral-buffered formalin, washed and decalcified in a solution of 10% EDTA for 2 weeks. One limb from each mouse was stored in 70% ethanol for μCT analysis and Von Kossa staining, while the other limb was embedded in paraffin for hematoxylin and eosin (H&E), tartrate-resistant acid phosphatase (TRAP), or immunohistochemical staining. Non-decalcified sections were embedded in resin using the Osteo-bed Bone Embedding Kit (Sigma Aldrich, EM0200) before sectioning, followed by Von Kossa staining. Briefly, sections were rehydrated to H2O, followed by submersion in 1% silver nitrate and exposure to UV light for 5 minutes. Sections were then incubated in 2.5% Sodium Thiosulphate, followed by counterstaining with Nuclear Fast Red and dehydration through Xylene. Histomorphometric analysis was performed on H&E stained bone metastasis sections using the Zeiss Axiovert 200 microscope and the AxioVision software version 4.6.3 SP1. For quantitative analysis of lesion area, a 5× objective was used to focus on the tumor region of interest and images were acquired using an AxioCamICc3 camera set to an exposure of 50 ms. Lesions that were larger than the field of view were quantified by acquiring multiple images to encompass the entire lesion and combined in Adobe Photoshop CS5. Lesion area was quantified by outlining the region(s) of interest and quantifying lesion area. Osteoclast number was assessed as multinucleated TRAP^+ cells along the tumor-bone interface and reported as number/mm of interface as previously reported (Sethi et al., 2011). Immunohistochemical analysis was performed with heat-induced antigen retrieval and an osteocalcin antibody (ABcam, AB93876). A biotinylated secondary antibody was used with Vectastain ABC Kit (Vector Laboratories) and DAB detection kit (Zymed) to reveal the positively stained cells; nuclei were counterstained with hematoxylin
Anesthetized mice were placed on singlewrapped films (X-OMAT AR, Eastman Kodak) and exposed to X-ray radiography at 35 kV for 15 s using a MX-20 Faxitron instrument. Films were developed using a Konica SRX-101A processor. Changes in bone remodeling and osteolytic lesions (radiolucent lesions) in the hindlimbs of mice were identified and quantified using the ImageJ software (National Institutes of Health)
Femurs and tibias were scanned using the INVEON PET/CT (Siemens Healthcare) at the Preclinical Imaging Shared Resource of Cancer Institute of New Jersey. The X-Ray tube settings were 80 kV and 500 μA and images were acquired at the highest resolution without CCD binning, resulting in a voxel size of 9.44 μm. A 0.66° rotation step through a 195° angular range with 6500 msec exposure was used. The images were reconstructed with Beam Hardening Correction and Hounsfield calibration before being analyzed using the INVEON Research Workplace software (Siemens Healthcare). After processing with a 3D Gaussian filter to reduce noise ROI's were manually segmented that corresponded to the cortical and trabecular bone regions. Cortical regions of interest comprised of 470 μm thick regions (50 slices, 9.4 μm thickness for each slice) located 3 mm distal to the growth plate, while 300 μm thick trabecular sections began 0.27 mm distal to the growth plate.
To evaluate the capacity for these miRNAs to inhibit mouse osteoclast function in vivo, 10 μg of pre-miRNA were injected into the lateral tail-vein of Balb/c mice weekly for four weeks. […] FIG. 6A illustrates representative X-ray, μCT and histological images for TRAP, H&E, Von Kossa, or osteocalcin staining of bones from mice treated with miR-33a, miR-133a, miR-141, miR-190 and miR-219 compared to non-treated control. Regions of interest for trabecular and cortical bone scan and analysis are marked by dashed lines. Scale bar indicates 200 μm, n=6. […]

Substance	osteoclast maturation and activity (RAW264.7 cells)	expression of Pu.1, Nfatc1, Ctsk (Western blot) [1]	number of osteoclasts relative to bone surface area (TRAP) (Balb/c mice)	osteoclast activity in vivo (Balb/c mice)
miR-219: miRNA, SEQ ID NO: 66; delivered as pre-miRNA precursor; targets Mitf and Traf6 (UGAUUGUCCAAACGCAAUUCU; delivered as pre-miRNA precursor, chemistry not given here; listed as Homo sapiens)	strongly inhibit	inhibited early osteoclast differentiation, with minimal expression of Nfatc1	significant decrease	significantly reduced
miR-133a: miRNA, SEQ ID NO: 61; delivered as pre-miRNA precursor; targets Mitf and Mmp14 (UUUGGUCCCCUUCAACCAGCUA; delivered as pre-miRNA precursor, chemistry not given here; listed as Homo sapiens)	strongly inhibit	inhibited early osteoclast differentiation, with minimal expression of Nfatc1		significantly reduced
miR-141: miRNA, SEQ ID NO: 69; delivered as pre-miRNA precursor; targets Mitf and Calcr (UAACACUGUCUGGUAACGAUGU; delivered as pre-miRNA precursor, chemistry not given here; listed as Homo sapiens)	strongly inhibit	inhibited early osteoclast differentiation, with minimal expression of Nfatc1	significant decrease	significantly reduced
miR-190: miRNA, SEQ ID NO: 64; delivered as pre-miRNA precursor; targets Calcr (UGAUAUGUUUGAUAUAUUAGGU; delivered as pre-miRNA precursor, chemistry not given here; listed as Homo sapiens)	Partial inhibition	expressed Pu.1 and Nfatc1, but not Ctsk		significantly reduced
